System: p53 target genes in MT373 tumors
Assay: MT373 syngeneic sarcoma model: p21, MDM2, GDF15 (MIC-1) mRNA RT-qPCR in tumors
Assay type: in vivo, mouse
Conditions: for MDM2 mRNA, Fold Change over Vehicle Control / MIC-1 mRNA, Fold Change over Vehicle Control / p21 mRNA, Fold Change over Vehicle Control: MT373 tumors
Experimental: Purification of RNA: Frozen tumor samples with the required weight were lysed in Buffer RLT with 10 μL/mL of β-mercaptoethanol using a TissueLyser LT. Total RNA was further purified from the lysate using QIAcube with DNase digestion, and RNA concentration was measured with a NanoDrop 2000 Spectrophotometer.
p21, MDM2, GDF15, and GAPDH Gene Expression: Individual gene expression was analyzed by one-step TaqMan-based real-time RT-qPCR. Purified total RNA was diluted to 2.5 ng/μL in DNase- and RNase-free water, and 10 ng was used for each 20 μL RT-qPCR assay using a LightCycler 96. A QuantiTect Probe RT-PCR Kit was used along with a specific primer/probe set as indicated. LAM-MGB labels were used for genes GAPDH, CDKN1a, MDM2, GDL15, and TRP53. The expression of the reference gene (human GAPDH and/or mouse GAPDH as indicated) in the ratio to the vehicle control was calculated using the ΔCt method with normalization to the total RNA input. The expression of a gene of interest relative to the reference gene was calculated using the ΔCt method, and the expression of a gene of interest relative to the reference gene in the ratio to the vehicle control was calculated using the ΔΔCt method.

CCn1c(C#CCNc2ccccc2)cc2cc(CNC3CCN(C)CC3)ccc21 [Compound 1, 1-Anilino-3-{1-ethyl-5-[(1-methyl-4-piperidylamino)methyl]-1H-indol-2-yl}-2-propyne]
MDM2 mRNA, Fold Change over Vehicle Control (75 mg/kg BIDx1 PO, 8 h): 6.16 fold | MIC-1 mRNA, Fold Change over Vehicle Control (75 mg/kg BIDx1 PO, 8 h): 1.74 fold | p21 mRNA, Fold Change over Vehicle Control (75 mg/kg BIDx1 PO, 8 h): 5.43 fold | MDM2 mRNA, Fold Change over Vehicle Control (75 mg/kg BIDx1 PO, 24 h): 2.44 fold | MIC-1 mRNA, Fold Change over Vehicle Control (75 mg/kg BIDx1 PO, 24 h): 1.14 fold | p21 mRNA, Fold Change over Vehicle Control (75 mg/kg BIDx1 PO, 24 h): 4.04 fold | MDM2 mRNA, Fold Change over Vehicle Control (75 mg/kg BIDx1 PO, 48 h): 1.12 fold | MIC-1 mRNA, Fold Change over Vehicle Control (75 mg/kg BIDx1 PO, 48 h): 0.85 fold | p21 mRNA, Fold Change over Vehicle Control (75 mg/kg BIDx1 PO, 48 h): 1.43 fold | MDM2 mRNA, Fold Change over Vehicle Control (75 mg/kg BIDx1 PO, 72 h): 1.08 fold | MIC-1 mRNA, Fold Change over Vehicle Control (75 mg/kg BIDx1 PO, 72 h): 0.65 fold | p21 mRNA, Fold Change over Vehicle Control (75 mg/kg BIDx1 PO, 72 h): 1.18 fold | MDM2 mRNA, Fold Change over Vehicle Control (75 mg/kg BIDx1 PO, 98 h): 1.11 fold | MIC-1 mRNA, Fold Change over Vehicle Control (75 mg/kg BIDx1 PO, 98 h): 1.05 fold | p21 mRNA, Fold Change over Vehicle Control (75 mg/kg BIDx1 PO): 0.99 fold | MDM2 mRNA, Fold Change over Vehicle Control (75 mg/kg BIDx1 PO, […]): 0.85 fold | MIC-1 mRNA, Fold Change over Vehicle Control (75 mg/kg BIDx1 PO, […]): 0.88 fold | p21 mRNA, Fold Change over Vehicle Control (75 mg/kg BIDx1 PO, […]): 0.98 fold | MDM2 mRNA increase (75 mg/kg BID×1, 8 h): 6.2 fold | p21 mRNA increase (75 mg/kg BID×1, 8 h): 5.4 fold | MDM2 mRNA increase (75 mg/kg BID×1, 24 h): 2.4 fold | p21 mRNA increase (75 mg/kg BID×1, 24 h): 4.0 fold | MDM2 mRNA, Fold Change over Vehicle Control (150 mg/kg BIDx1 PO, 8 h): 8.70 fold | MIC-1 mRNA, Fold Change over Vehicle Control (150 mg/kg BIDx1 PO, 8 h): 3.07 fold | p21 mRNA, Fold Change over Vehicle Control (150 mg/kg BIDx1 PO, 8 h): 6.73 fold | MDM2 mRNA, Fold Change over Vehicle Control (150 mg/kg BIDx1 PO, 24 h): 6.88 fold | MIC-1 mRNA, Fold Change over Vehicle Control (150 mg/kg BIDx1 PO, 24 h): 2.29 fold | p21 mRNA, Fold Change over Vehicle Control (150 mg/kg BIDx1 PO, 24 h): 9.61 fold | MDM2 mRNA, Fold Change over Vehicle Control (150 mg/kg BIDx1 PO, 48 h): 1.43 fold | MIC-1 mRNA, Fold Change over Vehicle Control (150 mg/kg BIDx1 PO, 48 h): 1.14 fold | p21 mRNA, Fold Change over Vehicle Control (150 mg/kg BIDx1 PO, 48 h): 1.87 fold | MDM2 mRNA, Fold Change over Vehicle Control (150 mg/kg BIDx1 PO, 72 h): 1.33 fold | MIC-1 mRNA, Fold Change over Vehicle Control (150 mg/kg BIDx1 PO, 72 h): 0.93 fold | p21 mRNA, Fold Change over Vehicle Control (150 mg/kg BIDx1 PO, 72 h): 1.33 fold | MDM2 mRNA, Fold Change over Vehicle Control (150 mg/kg BIDx1 PO, 98 h): 1.12 fold | MIC-1 mRNA, Fold Change over Vehicle Control (150 mg/kg BIDx1 PO, 98 h): 0.53 fold | p21 mRNA, Fold Change over Vehicle Control (150 mg/kg BIDx1 PO): 1.01 fold | MDM2 mRNA, Fold Change over Vehicle Control (150 mg/kg BIDx1 PO, […]): 1.16 fold | MIC-1 mRNA, Fold Change over Vehicle Control (150 mg/kg BIDx1 PO, […]): 1.00 fold | p21 mRNA, Fold Change over Vehicle Control (150 mg/kg BIDx1 PO, […]): 0.85 fold | MDM2 mRNA increase (150 mg/kg BID×1, 8 h): 8.7 fold | MIC-1 mRNA increase (150 mg/kg BID×1, 8 h): 3.07 fold | p21 mRNA increase (150 mg/kg BID×1, 8 h): 6.7 fold | MDM2 mRNA increase (150 mg/kg BID×1, 24 h): 6.9 fold | MIC-1 mRNA increase (150 mg/kg BID×1, 24 h): 2.29 fold | p21 mRNA increase (150 mg/kg BID×1, 24 h): 9.6 fold
